According to patent publication US12084472B2 (Ardelyx, Inc., priority 2015, dated 2024):

target: T1, human TGR5 (Homo sapiens, UniProt Q8TDU6); test: Cell-based TGR5 assay (cAMP generation, HTRF); settings: HEK293 cells stably transfected with human TGR5; cAMP by HTRF; 30 minutes at 37° C.; read-out: pEC50 Human TGR5 (converted)
T1 construct: expressed in transfected cells; host or cells: HEK293
T1 sequence (Q8TDU6 1-330): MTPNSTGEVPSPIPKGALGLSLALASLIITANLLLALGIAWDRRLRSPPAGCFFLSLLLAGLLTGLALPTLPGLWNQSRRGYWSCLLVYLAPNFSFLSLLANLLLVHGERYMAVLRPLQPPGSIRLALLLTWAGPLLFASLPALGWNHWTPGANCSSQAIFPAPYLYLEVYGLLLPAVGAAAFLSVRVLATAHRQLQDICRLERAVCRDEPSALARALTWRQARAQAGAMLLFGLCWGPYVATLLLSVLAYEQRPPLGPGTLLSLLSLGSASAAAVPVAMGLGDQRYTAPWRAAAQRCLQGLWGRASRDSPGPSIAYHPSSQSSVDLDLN
Protocol: A primary cell-based assay utilized HEK293 cells stably transfected with a gene encoding human TGR5. Cells were treated with candidate TGR5 activators and assessed for increased intercellular levels of cAMP.
TGR5-mediated cAMP generation was measured using a homogeneous time resolved fluorescence (HTRF) detection method (Cisbio). Test compounds were dissolved in DMSO to a final concentration of 10 mM. Serial 3-fold dilutions of the stock solution were made in DMSO, and these solutions were diluted 100-fold into Hanks Balanced Salt Solution supplemented with 10 mM HEPES pH 7.4, 0.003% Tween 20 and 0.5 mM isobutyl methylxanthine. Five microliters of diluted test compounds were added to wells of a black 384 well plate.
Cells grown overnight at 37° C./5% CO2 were harvested and resuspended in Hanks Balanced Salt Solution containing 10 mM HEPES to a concentration of […]. Five microliters (2500 cells) were dispensed into each well of the 384 well plate containing compound dilutions and incubated at 37° C. for 30 minutes. Each compound was tested in duplicate at 12 concentrations ranging from 0.05 nM to 10 μM.
Following incubation with test compounds, cAMP was detected through the successive addition of 5 μL each of cAMP labeled with the modified allophyocyanin dye d2 (cAMP-d2) and cryptate-labeled anti-cAMP in lysis buffer, and reading HTRF per the manufacturer's instructions.
A standard curve was used to convert the raw HTRF data into [cAMP]. The concentration of cAMP was plotted against log [test compound] and the resulting curves were fit to a 3-parameter logistical equation using GraphPad Prism to determine pEC50 (the negative log of the EC50) and the magnitude of the response.

SMILES	EC50 [µM]
Cc1cc(COC2(c3cnccc3-c3ccccc3OC3CC3)CC2)c(Cl)cc1CCCCNC(=O)N1CCN(C[C@H](O)[C@@H](O)[C@@H](O)[C@H](O)CO)CC1 [Compound I-114, N-{4-[5-chloro-4-({1-[4-(2-cyclopropoxyphenyl)pyridin-3-yl]cyclopropoxy}methyl)-2-methylphenyl]butyl}-4-[(2S,3R,4S,5R)-2,3,4,5,6-pentahydroxyhexyl]piperazine-1-carboxamide]	< 0.1
CC(=O)NS(=O)(=O)c1ccc(Cl)c(COC2(c3cnccc3-c3ccccc3OC3CC3)CC2)c1 [Compound I-729, N-[[4-chloro-3-([1-[4-(2-cyclopropoxyphenyl)pyridin-3-yl]cyclopropoxy]methyl)benzene]sulfonyl]acetamide]	1.26 to 10
CC(OCc1cc(S(=O)(=O)N(CCCCNC(=O)NC[C@H](O)[C@@H](O)[C@H](O)[C@H](O)CO)C(C)C)ccc1Cl)c1cnccc1-c1ccccc1OC1CC1 (stereo partly drawn) [Compound I-753, 4-chloro-3-((1-(4-(2-cyclopropoxyphenyl)pyridin-3-yl)ethoxy)methyl)-N-isopropyl-N-(4-(3-((2S,3R,4R,5R)-2,3,4,5,6-pentahydroxyhexyl)ureido)butyl)benzenesulfonamide]	< 0.1
CN(CCCNC[C@H](O)[C@@H](O)[C@H](O)[C@H](O)C(=O)O)C(=O)CCCCc1cc(Cl)c(COC2(c3cnccc3-c3ccccc3OC3CC3)CC2)cc1Cl [Compound I-180, (2S,3S,4R,5S)-6-[(3-{5-[2,5-dichloro-4-({1-[4-(2-cyclopropoxyphenyl)pyridin-3-yl]cyclopropoxy}methyl)phenyl]-N-methylpentanamido}propyl)amino]-2,3,4,5-tetrahydroxyhexanoic acid]	< 0.1
O=C(/C=C/C1CCN(S(=O)(=O)c2ccc(Cl)c(COC3(c4cnccc4-c4ccccc4OC4CC4)CC3)c2)C1)NC[C@H](O)[C@@H](O)[C@H](O)[C@H](O)CO (stereo partly drawn) [Compound I-450, (2E)-3-{1-[4-chloro-3-({1-[4-(2-cyclopropoxyphenyl)pyridin-3-yl]cyclopropoxy}methyl)benzenesulfonyl]pyrrolidin-3-yl}-N-[(2S,3R,4R,5R)-2,3,4,5,6-pentahydroxyhexyl]prop-2-enamide]	< 0.1
NCCOCCNS(=O)(=O)c1ccc(Cl)c(COC2(c3cnccc3-c3ccccc3OC3CC3)CC2)c1 [Compound I-399, N-[2-(2-aminoethoxy)ethyl]-4-chloro-3-({1-[4-(2-cyclopropoxyphenyl)pyridin-3-yl]cyclopropoxy}methyl)benzene-1-sulfonamide]	0.126 to 1
CCNC(=O)[C@H](CCCCNS(=O)(=O)c1ccc(Cl)c(COC2(c3cnccc3-c3ccccc3OC3CC3)CC2)c1)NC(=O)NC[C@H](O)[C@@H](O)[C@H](O)[C@H](O)CO [Compound I-487]	0.126 to 1

The next lines start with the values.

EC50 [µM]	SMILES
< 0.1	CN(CCCSc1ccc(Cl)c(COC2(c3cnccc3-c3ccccc3OC3CC3)CC2)c1)C(=O)[C@@H](O)[C@@H](O)[C@H](O)[C@@H](O)CO [Compound I-508, (2S,3S,4R,5S)-N-(3-{[4-chloro-3-({1-[4-(2-cyclopropoxyphenyl)pyridin-3-yl]cyclopropoxy}methyl)phenyl]sulfanyl}propyl)-2,3,4,5,6-pentahydroxy-N-methylhexanamide]
< 0.1	NS(=O)(=O)CCN(CCCCc1cc(Cl)c(COC2(c3cnccc3-c3ccccc3OC3CC3)CC2)cc1Cl)C(=O)[C@H](O)[C@@H](O)[C@H](O)[C@H](O)CO [Compound I-84, (2R,3S,4R,5R)-N-{4-[2,5-dichloro-4-({1-[4-(2-cyclopropoxyphenyl)pyridin-3-yl]cyclopropoxy}methyl)phenyl]butyl}-2,3,4,5,6-pentahydroxy-N-(2-sulfamoylethyl)hexanamide]
< 0.1	O=C(NCCOCCS(=O)(=O)c1ccc(Cl)c(COC2(c3cnccc3-c3ccccc3OC3CC3)CC2)c1)NC[C@H](O)[C@@H](O)[C@H](O)[C@H](O)CO [Compound I-492, 1-[2-(2-[[4-Chloro-3-([l-[4-(2-cyclopropoxyphenyl)pyridin-3-yl]cyclopropoxy]methyl)benzene]sulfonyl]ethoxy)ethyl]-3-[(2S,3R,4R,5R)-2,3,4,5,6-pentahydroxyhexyl]urea]
